System: ventricular papillary muscle cell of guinea pig
Assay: Action potential of the ventricular papillary muscle cell of guinea pig (electrophysiological recording)
Assay type: cell-based
Conditions: screening stage; for percent change in action potential duration at 0.0005 µM / percent change in action potential duration at 0.005 µM / percent change in action potential duration at 0.05 µM: Cavia porcellus, 20 min, read-out: APD, Change rate (%); for Effect on the APD value of the action potential of the papillary muscle (in words): Table 3 summary; for APD, Post-administration: about 20 min perfusion
Procedure: Method: One guinea pig was taken to violently hit the back of the brain such that it fainted. The common carotid artery was cut off for bleeding to kill the guinea pig. The chest was incised to expose the heart, and the ventricle was cut open along the interventricular septum to expose the lumen of the left ventricle. The papillary muscles were quickly taken out and placed in a Kreb's solution saturated with O2 (mixed gas of 95% O2 and 5% CO2) at 0° C. After the microscopic dressing, the papillary muscle specimen was fixed with a stainless steel needle on the silicone rubber at the bottom of the perfusion bath, and perfused with the oxygen-saturated Kreb's solution. The relevant parameters for perfusion: the temperature was 37±0.5° C., and the flow rate was 4 mL/min.
Cellular action potentials were recorded using a conventional electrophysiological method. The glass electrode filled with 3M KCl saturated solution and having a tip resistance of 15-30 MΩ was fixed on the microelectrode manipulator MP-2. The glass electrode was gently inserted into the superficial layer of the prepared papillary muscle specimen using a microelectrode pusher. The electrode was adjusted to provide the predetermined bioelectrical stimulation with the triple-channel SEN-7203 electronic stimulator and SS-202 J isolator. The bioelectrical signal was amplified by the MEZ-8301 amplifier and then input to the computerized electrophysiological recording and analysis system Powerlab 4/25. Subsequently, the relevant parameters of the action potential for the ventricular papillary muscle were analyzed through the analysis system. The relevant parameters for electrical stimulation: 30 ms latency, 7 ms wavewidth, 1 Hz frequency, 52.1 my stimulation intensity.
In the compound screening test stage, after the ventricular papillary muscle specimen of the guinea pig was fixed, it was first perfused with a normal Kreb's solution for about 85 minutes for stabilization, and the relevant parameters of the cellular action potential before administration were recorded at about 80 min after the start of perfusion. The three-limb tube was used to convert the perfusates containing the title compounds. The title compounds were continuously perfused for about 25 min successively with low (0.0005 μM), medium (0.005 μM), and high (0.05 μM) concentrations, respectively. At about 20 min after the start of drug perfusions at different concentrations, the relevant parameters of the action potentials for the ventricular papillary muscle of guinea pig were observed and recorded, respectively. The normal Kreb's solution was used to perfuse and elute for about 25 min during the intervals between drug perfusions at different concentrations.
The experiment was divided into the following five groups with 6 animals in each group: a vehicle control group, a 369 low dose (0.0005 μM) group, a 369 medium dose (0.005 μM) group, a 369 high dose (0.05 μM) group, and an amiodarone (10 μM) positive control group. After the ventricular papillary muscle specimen of the guinea pig was fixed, it was first perfused with a normal Kreb's solution for about 85 minutes for stabilization, and the relevant parameters of the cellular action potential before administration were recorded at about 80 min after the start of perfusion. According to groups, the three-limb tube was configured to convert the perfusates containing the vehicle, positive control, or Compound 369 at the corresponding concentrations to continuously perfuse for about 25 min. At about 20 min after the start of the perfusions, the relevant parameters of the action potentials for the ventricular papillary muscle of guinea pig were observed and recorded.

| Compound | percent change in action potential duration at 0.0005 µM (0.0005 μM) [%] | percent change in action potential duration at 0.005 µM (0.005 μM) [%] | Effect on the APD value of the action potential of the papillary muscle (in words) | APD, Post-administration (0.0005 μM) | APD, Post-administration (0.005 μM) | percent change in action potential duration at 0.05 µM (0.05 μM) [%] | APD, Post-administration (0.05 μM) |
| --- | --- | --- | --- | --- | --- | --- | --- |
| CC(=O)C1=CC[C@@]2(C)[C@@H]3CC[C@H]4C(C)(C)[C@@H](N(C)C)CC[C@@]45C[C@@]35CC[C@]12C [Compound 383, (3β,5α)-4,4,14-trimethyl-3-(dimethylamino)-9,19-cyclopregnan-16-en-20-one] | 16.3 | 29 | a certain degree of prolonged effects | 0.0943 | 0.1024 | – | – |
| CN[C@H]1CC[C@]23C[C@]24CC[C@]2(C)C(C(C)=O)=C(C)C[C@@]2(C)[C@@H]4CC[C@H]3C1(C)C [Compound 383a, (3β,5α)-4,4,14,16-tetramethyl-3-(methylamino)-9,19-cyclopregnan-16-en-20-one] | 4.02 | 33 | a certain degree of prolonged effects | 0.0751 | 0.0943 | 30 | 0.0948 |
| CN[C@H]1CC[C@]23C[C@]24CC[C@]2(C)C(/C(C)=N\O)=CC[C@@]2(C)[C@@H]4CC[C@H]3C1(C)C [Compound 384, (3β,5α)-4,4,14-trimethyl-3-(methylamino)-9,19-cyclopregnan-16-en-20-one oxime] | 21.2 | 38.6 | a certain degree of prolonged effects | 0.0890 | 0.0988 | 41.3 | 0.1047 |
| CN[C@H]1CC[C@]23C[C@]24CC[C@]2(C)C(C(=O)CO)=CC[C@@]2(C)[C@@H]4CC[C@H]3C1(C)C [Compound 385, (3β,5α)-4,4,14-trimethyl-21-hydroxy-3-(methylamino)-9,19-cyclopregnan-16-en-20-one] | 16.4 | 27.4 | a certain degree of prolonged effects | 0.0796 | 0.0893 | 40.1 | 0.975 |
| CN[C@H]1CC[C@]23C[C@]24CC[C@]2(C)C(C(C)=O)=C(F)C[C@@]2(C)[C@@H]4CC[C@H]3C1(C)C [Compound 387, (3β,5α)-4,4,14-trimethyl-16-fluoro-3-(methylamino)-9,19-cyclopregnan-16-en-20-one] | 8.49 | 19.8 | a certain degree of prolonged effects | 0.0869 | 0.0944 | 24.2 | 0.0985 |
| CCN(C)[C@H]1CC[C@]23C[C@]24CC[C@]2(C)C(C(C)=O)=CC[C@@]2(C)[C@@H]4CC[C@H]3C1(C)C [Compound 397, (3β,5α)-4,4,14-trimethyl-3-(methylethylamino)-9,19-cyclopregnan-16-en-20-one] | 7.68 | -3 | – | 0.0785 | 0.0711 | 11.8 | 0.0841 |
| CN[C@H]1CC[C@]23C[C@]24CC[C@]2(C)C(/C(C)=N\OC)=CC[C@@]2(C)[C@@H]4CC[C@H]3C1(C)C [Compound 398, (3β,5α)-4,4,14-trimethyl-3-(methylamino)-20-methoxyimino-9,19-cyclopregnan-16-ene] | -0.86 | 6.63 | – | 0.0695 | 0.771 | 9.46 | 0.764 |
| CN(C)[C@H]1CC[C@]23C[C@]24CC[C@]2(C)C(C(=O)CO)=CC[C@@]2(C)[C@@H]4CC[C@H]3C1(C)C [Compound 399a, (3β,5α)-4,4,14-trimethyl-21-hydroxy-3-(dimethylamino)-9,19-cyclopregnan-16-en-20-one] | 24.4 | 28.5 | a certain degree of prolonged effects | 0.0960 | 0.1010 | 38.4 | 0.1103 |
| CC(=O)C1=CC[C@@]2(C)[C@@H]3CC[C@H]4C(C)(C)[C@@H](N(C)C5CC5)CC[C@@]45C[C@@]35CC[C@]12C [Compound 409, (3β,5α)-4,4,14-trimethyl-3-(methylcyclopropylamino)-9,19-cyclopregnan-16-en-20-one] | 1.84 | 3.25 | – | 0.0773 | 0.0762 | 6.07 | 0.0786 |
| CN[C@H]1CC[C@]23C[C@]24CC[C@]2(C)C(C(=O)COC(C)=O)=CC[C@@]2(C)[C@@H]4CC[C@H]3C1(C)C [Compound 427, (3β,5α)-4,4,14-trimethyl-21-acetoxy-3-(methylamino)-9,19-cyclopregnan-16-en-20-one] | 18.2 | 20.6 | a certain degree of prolonged effects | 0.0903 | 0.0929 | 42.9 | 0.1073 |
| CN[C@H]1CC[C@]23C[C@]24CC[C@]2(C)C(C(=O)COC(=O)c5ccccc5)=CC[C@@]2(C)[C@@H]4CC[C@H]3C1(C)C [Compound 489, (3β,5α)-4,4,14-trimethyl-3-(methylamino)-21-(benzoyloxy)-9,19-cyclopregnan-16-en-20-one] | -2.09 | 1.85 | – | 0.0750 | 0.0771 | 9.63 | 0.820 |
| CN[C@H]1CC[C@]23C[C@]24CC[C@]2(C)C(C(=O)COC(=O)CCC(=O)O)=CC[C@@]2(C)[C@@H]4CC[C@H]3C1(C)C.Cl [Compound 522, (3β,5α)-4,4,14-trimethyl-3-(methylamino)-21-(3-carboxypropionyloxy)-9,19-cyclopregnan-16-en-20-one hydrochloride] | 2.87 | 27.2 | a certain degree of prolonged effects | 0.0824 | 0.0996 | 36 | 0.1102 |
